Source: article PMC10253456, “Investigating the Contribution of Major Drug-Metabolising Enzymes to Possum-Specific Fertility Control” (International Journal of Molecular Sciences, 2023)
Like-named read-outs stand apart in the source and are kept apart here.

What was measured:
UGT2B [1] = assay: p-nitrophenol glucuronidation activity in possum liver microsomes; assay type: biochemical, possum (Trichosurus vulpecula); details: for p-nitrophenol glucuronidation (UGT2B) activity, % of the control: at estimated IC50 and 2-fold IC50 values; for % of control (UGT2B4 catalytic activity at 2-fold IC50) / UGT2B4 catalytic activity at 2-fold IC50: compound at estimated 2-fold IC50; for Glucuronidation Activities / Percent of Control: p-nitrophenol 0.625 mM
UGT2B [2] = assay: p-nitrophenol glucuronidation activity in mouse liver microsomes
CYP3A [3] = assay: CYP3A catalytic activity (erythromycin N-demethylation) in mouse liver microsomes; details: for Percent control catalytic activity at estimated IC50 / Percent control catalytic activity at estimated 2-fold IC50: mouse liver microsomes, initial screen n=1; for Percent control catalytic activity at estimated IC50: compounds without reported IC50 at 1 µM; for Percent control catalytic activity at estimated 2-fold IC50: compounds without reported IC50 at 5 µM; for % of control (catalytic activity at 2-fold IC50) / Catalytic activity at 2-fold IC50: mouse, compound at estimated 2-fold IC50 (5 µM where none reported)
Procedure: (§1) Possums were collected from the Otago Peninsula (Dunedin) and the Okuti Valley, Banks Peninsula (Christchurch) in New Zealand in collaboration with the Otago Peninsula Biodiversity Group and Manaaki Whenua-Landcare Research, respectively. […] Possums were caged and humanely killed by a blow to the head, and the livers were harvested, snap-frozen in liquid nitrogen, and stored in a freezer at −80 °C until the preparation of microsomal fractions. […] Mice were euthanised by carbon dioxide inhalation and the livers were removed and microsomes prepared. […] The livers from avian species (mallards and a swan) were kindly donated by a local bird hunting group based in Dunedin, New Zealand. The livers from avian species were treated similarly to those mentioned above for the possum samples.
(§2) Microsomal preparation was carried out as previously described [76]. […] All procedures were performed at 0–4 °C. The liver samples were minced and homogenised in Buffer A (0.1 M Tris, 0.1 M potassium chloride, 1 mM EDTA, and 20 μM butylated hydroxytoluene, at pH = 7.4) using the Teflon-glass homogeniser (5–6 vertical passes). The samples were centrifuged at 10,000× g for 20 min. The supernatant was then transferred into another set of centrifuge tubes and spun at 100,000× g for 60 min. The pellet was resuspended in Buffer B (0.1 M potassium pyrophosphate, 1 mM EDTA, and 20 μM butylated hydroxytoluene, at pH = 7.4), homogenised, and recentrifuged at 100,000× g for 60 min. Finally, the pellet was homogenised in 1–2 mL of Buffer C (10 mM Tris-HCl, 1 mM EDTA, and 4% glycerol (v/v)), and stored at −80 °C until use. The protein concentration of the microsomes was determined using the bicinchoninic acid (BCA) method [77].
(§3) CYP3A catalytic activity was determined using the erythromycin N-demethylation activity assay, as described [78]. The reaction mixture (final volume of 1 mL and final protein concentration of 1 mg) contained 500 µL of microsomes in 0.1 M phosphate buffer (pH 7.4) and 400 µL of erythromycin buffer (0.45 mM), and 50 µL of the test compound was pre-warmed at 37 °C for 2 min. The reaction was initiated with 50 µL of 2.5 mM nicotinamide adenine dinucleotide phosphate (NADP^+) and incubated for 30 min at 37 °C. […] The tubes were vortexed and left for 5 min (at room temperature), and then 330 µL of saturated barium hydroxide was added. The tubes were further vortexed and left for 5 min (at room temperature). The tubes were then centrifuged at 1800× g for 10 min. To 830 µL of the supernatant, 330 µL of Nash reagent (30% (w/v) ammonium acetate, 0.4% (v/v) acetylacetone) was added and further incubated for 30 min at 60 °C. The blank tube contained 330 µL of Nash reagent and 830 µL of Milli-Q water. […] The CYP3A activities were determined in nmol/mg/min using standard curve data. Results presented are the mean ± SEM of 3 independent experiments performed in duplicate unless otherwise stated.

UGT2B [4] = details: avian; for % of control (UGT2B4 catalytic activity at 2-fold IC50) / UGT2B4 catalytic activity at 2-fold IC50: compound at estimated 2-fold IC50
CYP3A [5] = assay: CYP3A catalytic activity (erythromycin N-demethylation) in possum liver microsomes; details: for Percent control catalytic activity at estimated IC50 / Percent control catalytic activity at estimated 2-fold IC50: possum liver microsomes, initial screen n=1; for Percent control catalytic activity at estimated IC50: compounds without reported IC50 at 1 µM; for Percent control catalytic activity at estimated 2-fold IC50: compounds without reported IC50 at 5 µM; for % of control (catalytic activity at 2-fold IC50) / Catalytic activity at 2-fold IC50: possum, compound at estimated 2-fold IC50 (5 µM where none reported)
Procedure: as §1, §2, §3

UGT2B [6] = assay: p-nitrophenol glucuronidation activity in pooled human liver microsomes
UGT2B (heading: UGT2B4) [7] = assay: p-nitrophenol glucuronidation activity in possum liver microsomes; assay type: biochemical, possum (Trichosurus vulpecula); details: possum (Trichosurus vulpecula)
UGT2B (heading: UGT2B4) [8] = assay: p-nitrophenol glucuronidation activity in mouse liver microsomes; details: BALB/c, mouse
UGT2B (heading: UGT2B4) [9] = assay: in vitro; details: avian (mallards and a swan), pH 7.4
UGT2B (heading: UGT2B4) [10] = assay: p-nitrophenol glucuronidation activity in pooled human liver microsomes; details: human, pooled human liver microsomes (50 donors), pH 7.4, probe p-nitrophenol (0.5 mM final, from 50 µL of 5 mM in 500 µL)
CYP3A [11] = assay: CYP3A catalytic activity (erythromycin N-demethylation) in pooled human liver microsomes; details: for % of control (catalytic activity at 2-fold IC50) / Catalytic activity at 2-fold IC50: compound at estimated 2-fold IC50 (5 µM where none reported); for activity at 30 min: human, pH 7.4, probe erythromycin, % of control (catalytic activity at IC50), compound at estimated IC50 (1 µM where none reported)
Procedure: as §3
UGT2B (heading: UGT2B4) [12] = assay: in vitro; details: human, pH 7.4
CYP3A [13] = details: avian; compound at estimated 2-fold IC50 (5 µM where none reported)
Procedure: as §1, §2, §3

[14] = mouse, compound at estimated 2-fold IC50
[15] = pooled human liver microsomes, compound at estimated 2-fold IC50
[16] = liver microsomes, pH 7.4, probe p-nitrophenol (0.5 mM final, from 50 µL of 5 mM in 500 µL), compound at estimated IC50, read-out: % of control (UGT2B4 catalytic activity at IC50)
[17] = liver microsomes, pH 7.4, probe p-nitrophenol (0.5 mM final, from 50 µL of 5 mM in 500 µL)
[18] = pH 7.4, compound at estimated IC50, read-out: % of control (UGT2B4 catalytic activity at IC50)

Row | SMILES | % of control (UGT2B4 catalytic activity at 2-fold IC50) (UGT2B [1]) | UGT2B4 catalytic activity at 2-fold IC50 (UGT2B [1]) | % of control (UGT2B4 catalytic activity at 2-fold IC50) (UGT2B [2]; [14]) | UGT2B4 catalytic activity at 2-fold IC50 (UGT2B [2]; [14]) | Percent control catalytic activity at estimated IC50 (CYP3A [3]) | % of control (UGT2B4 catalytic activity at 2-fold IC50) (UGT2B [4]) | UGT2B4 catalytic activity at 2-fold IC50 (UGT2B [4]) | Percent control catalytic activity at estimated IC50 (CYP3A [5]) | activity at 30 min (UGT2B (heading: UGT2B4) [7]; [16]) | UGT2B4 catalytic activity at 2-fold IC50 (UGT2B [2]) | activity at 30 min (UGT2B (heading: UGT2B4) [8]; pH 7.4) | Percent control catalytic activity at estimated 2-fold IC50 (CYP3A [3]) | activity at 30 min (UGT2B (heading: UGT2B4) [9]) | Percent control catalytic activity at estimated 2-fold IC50 (CYP3A [5]) | % of control (UGT2B4 catalytic activity at 2-fold IC50) (UGT2B [6]) | UGT2B4 catalytic activity at 2-fold IC50 (UGT2B [6]) | activity at 30 min (UGT2B (heading: UGT2B4) [10]) | activity at 30 min (UGT2B (heading: UGT2B4) [8]; [17]) | activity at 30 min (UGT2B (heading: UGT2B4) [7]; [18]) | also measured
1 | COc1cc(C2Oc3ccc([C@H]4Oc5cc(O)cc(O)c5C(=O)[C@@H]4O)cc3OC2CO)ccc1O (stereo partly drawn) [Isosilybin] | 65 % of control | 2.21 ± 0.17 µmol/mg/min | 80 % of control | 1.55 ± 0.19 µmol/mg/min | 71 percent control | 67 % of control | 0.28 ± 0.11 µmol/mg/min | 73 percent control | – | – | – | – | – | – | – | – | – | – | – | inhibitory potential on glucuronidation activity with varying concentrations of p-nitrophenol (substrate) (UGT2B [1]; Table 1): no significant changes compared to their respective control activities; p-nitrophenol glucuronidation (UGT2B) activity, % of the control (UGT2B [1]): > 65 % of the control; % of control (UGT2B4 catalytic activity at IC50) (UGT2B [1]; compound at estimated IC50): 78 % of control; Glucuronidation Activities (UGT2B [1]; isosilybin 100 µM): 0.12 ± 0.09 µmol/mg/min; Percent of Control (UGT2B [1]; isosilybin 100 µM): 63% of Control; Glucuronidation Activities (UGT2B [1]; isosilybin 200 µM): 0.13 ± 0.05 µmol/mg/min; Percent of Control (UGT2B [1]; isosilybin 200 µM): 67% of Control; % of control (UGT2B4 catalytic activity at IC50) (UGT2B [2]; mouse, compound at estimated IC50): 96 % of control; % of control (UGT2B4 catalytic activity at IC50) (UGT2B [4]; compound at estimated IC50): 101 % of control; p-nitrophenol glucuronidation (UGT2B) activity, % of the control (UGT2B [6]; pooled human liver microsomes, at estimated IC50 and 2-fold IC50 values): no significant inhibition; % of control (UGT2B4 catalytic activity at 2-fold IC50) (UGT2B [6]; [15]): 107 % of control; UGT2B4 catalytic activity at 2-fold IC50 (UGT2B [6]; [15]): 3.15 µmol/mg/min; % of control (UGT2B4 catalytic activity at IC50) (UGT2B [6]; pooled human liver microsomes, compound at estimated IC50): 93 % of control
2 | CCC(C)n1ncn(-c2ccc(N3CCN(c4ccc(OCC5COC(Cn6cncn6)(c6ccc(Cl)cc6Cl)O5)cc4)CC3)cc2)c1=O (stereo not drawn) [Itraconazole] | 102 % of control | 3.06 ± 0.25 µmol/mg/min | – | – | 91 percent control | 94 % of control | 0.35 ± 0.05 µmol/mg/min | 141 percent control | 102% | 1.99 ± 0.24 µmol/mg/min | 125% | 91 percent control | 118% | 120 percent control | 88 | 2.80 µmol/mg/min | 95% | – | – | % of control (UGT2B4 catalytic activity at 2-fold IC50) (UGT2B [2]): 106
3 | C[C@@H]1CC[C@H]2C(C)(C)[C@H]3C[C@@]12CC[C@@]3(C)O [Cedrol] | 92 % of control | 3.78 ± 0.13 µmol/mg/min | 84 % of control | 2.57 ± 0.16 µmol/mg/min | 90 percent control | 91 % of control | 0.56 ± 0.13 µmol/mg/min | 107 percent control | 93% | – | 84% | 62 percent control | 96% | 99 percent control | – | – | 98% | – | – | % of control (UGT2B4 catalytic activity at 2-fold IC50) (UGT2B [6]; [15]): 98 % of control; UGT2B4 catalytic activity at 2-fold IC50 (UGT2B [6]; [15]): 3.85 µmol/mg/min
4 | CC(C)c1nc(CN(C)C(=O)N[C@@H](CCN2CCOCC2)C(=O)N[C@H](CC[C@H](Cc2ccccc2)NC(=O)OCc2cncs2)Cc2ccccc2)cs1 [Cobicistat] | – | – | – | – | – | – | – | – | – | – | – | – | 33% | – | – | – | 110% | 104% | – | –
5 | Nc1ccc(S(=O)(=O)Nc2ccnn2-c2ccccc2)cc1 [Sulfaphenazole] | 99 % of control | 3.59 ± 0.23 µmol/mg/min | 94 % of control | – | 96 percent control | 74 % of control | 0.57 ± 0.14 µmol/mg/min | 93 percent control | 105% | 2.27 ± 0.02 µmol/mg/min | – | 100 percent control | 74% | 84 percent control | 98 | 3.38 µmol/mg/min | – | 103% | – | % of control (catalytic activity at 2-fold IC50) (CYP3A [11]): 105 % of control; Catalytic activity at 2-fold IC50 (CYP3A [11]): 0.47 nmol/mg/min; % of control (catalytic activity at 2-fold IC50) (CYP3A [3]): 109 % of control; Catalytic activity at 2-fold IC50 (CYP3A [3]): 0.68 ± 0.06 nmol/mg/min; activity (UGT2B (heading: UGT2B4) [12]): 102%; % of control (catalytic activity at 2-fold IC50) (CYP3A [5]): 111 % of control; Catalytic activity at 2-fold IC50 (CYP3A [5]): 0.37 ± 0.04 nmol/mg/min; % of control (catalytic activity at 2-fold IC50) (CYP3A [13]): 110 % of control; Catalytic activity at 2-fold IC50 (CYP3A [13]): 0.33 ± 0.06 nmol/mg/min
6 | OC(Cn1cncn1)(Cn1cncn1)c1ccc(F)cc1F [Fluconazole] | – | – | – | – | 70 percent control | – | – | 107 percent control | – | – | 81% | – | 224% | – | – | – | 112% | – | 93% | p-nitrophenol glucuronidation (UGT2B) activity, % of the control (UGT2B [1]): > 65 % of the control; activity at 30 min (CYP3A [11]): 91%
7 | CC[C@H]1OC(=O)[C@H](C)[C@@H](O[C@H]2C[C@@](C)(OC)[C@@H](O)[C@H](C)O2)[C@H](C)[C@@H](O[C@@H]2O[C@H](C)C[C@H](N(C)C)[C@H]2O)[C@](C)(OC)C[C@@H](C)C(=O)[C@H](C)[C@@H](O)[C@]1(C)O [Clarithromycin] | 96 % of control | 3.51 ± 0.28 µmol/mg/min | 90 % of control | 1.77 ± 0.12 µmol/mg/min | 89 percent control | 48 % of control | 0.20 ± 0.08 µmol/mg/min | 90 percent control | – | – | 120% | 81 percent control | 110% | 117 percent control | – | – | – | – | 108% | % of control (catalytic activity at 2-fold IC50) (CYP3A [11]): 91 % of control; Catalytic activity at 2-fold IC50 (CYP3A [11]): 0.59 nmol/mg/min; activity at 30 min (CYP3A [11]): 95%; % of control (catalytic activity at 2-fold IC50) (CYP3A [3]): 95 % of control; Catalytic activity at 2-fold IC50 (CYP3A [3]): 0.60 ± 0.09 nmol/mg/min; % of control (catalytic activity at 2-fold IC50) (CYP3A [5]): 103 % of control; Catalytic activity at 2-fold IC50 (CYP3A [5]): 0.43 ± 0.01 nmol/mg/min; % of control (catalytic activity at 2-fold IC50) (CYP3A [13]): 94 % of control; Catalytic activity at 2-fold IC50 (CYP3A [13]): 0.41 ± 0.07 nmol/mg/min
8 | O=C(/C=C/C=C/c1ccc2c(c1)OCO2)N1CCCCC1 [Piperine] | 103 % of control | 4.29 ± 0.17 µmol/mg/min | – | – | 126 percent control | 86 % of control | 0.55 ± 0.06 µmol/mg/min | 127 percent control | – | 2.70±0.07 | – | 107 percent control | 84% | 121 percent control | 92 | 3.62 | 94% | 113% | 103% | % of control (UGT2B4 catalytic activity at 2-fold IC50) (UGT2B [2]): 99
